Each structure is given as a SMILES string. Where two headings read alike, the source gives them in different places.

In patent publication US8440652B2, “MST1 kinase inhibitors and methods of their use” (Lexicon Pharmaceuticals, Inc., priority 2011, dated 2013) one finds IC50 data, which are given here for 31 compounds.

The experiment concerns the target T1, MST1 (Homo sapiens, UniProt Q13043).
T1 sequence (Q13043 1-487): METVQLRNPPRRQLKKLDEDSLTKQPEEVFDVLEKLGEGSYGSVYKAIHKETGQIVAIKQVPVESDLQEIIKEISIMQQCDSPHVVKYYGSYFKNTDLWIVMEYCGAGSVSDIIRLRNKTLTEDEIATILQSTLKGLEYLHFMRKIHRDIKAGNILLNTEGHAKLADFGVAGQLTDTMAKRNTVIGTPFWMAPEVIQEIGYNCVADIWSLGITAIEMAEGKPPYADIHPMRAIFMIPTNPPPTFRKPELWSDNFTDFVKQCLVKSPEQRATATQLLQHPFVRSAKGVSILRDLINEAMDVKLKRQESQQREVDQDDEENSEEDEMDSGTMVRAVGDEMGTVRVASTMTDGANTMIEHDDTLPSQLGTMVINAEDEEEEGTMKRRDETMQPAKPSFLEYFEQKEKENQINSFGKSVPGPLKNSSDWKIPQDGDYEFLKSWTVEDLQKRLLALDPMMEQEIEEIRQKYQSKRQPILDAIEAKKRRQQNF
The experiment in a line: In vitro measurement of MST1 inhibition (Z′-Lyte kinase assay). Format: biochemical.

Where [1] appears, read: 1 μM ATP, read-out: IC50 (μM) 1 μM ATP.
Setting [2] is: 50 μM ATP, read-out: IC50 (μM) 50 μM ATP.

What is called IC50 is the point on the concentration scale where inhibition reaches its midpoint. With `CC1(C#N)CCc2cc(-c3cnc(N)c(-c4ccc5c(c4)CCNC5=O)c3)ccc21` (stereo not shown) [5-(6-amino-5-(1-oxo-1,2,3,4-tetrahydroisoquinolin-6-yl)pyridin-3-yl)-1-methyl-2,3-dihydro-1H-indene-1-carbonitrile], the IC50 under setting [1] was less than 0.15 µM and the IC50 under setting [2] is less than 0.01 µM.
For `Nc1ncc(-c2ccc(C(=O)NCC(F)(F)F)s2)cc1-c1ccc2c(c1)CCNC2=O` [5-(6-amino-5-(1-oxo-1,2,3,4-tetrahydroisoquinolin-6-yl)pyridin-3-yl)-N-(2,2,2-trifluoroethyl)thiophene-2-carboxamide], the IC50 is, setting by setting: under setting [1], less than 0.15 µM; under setting [2], less than 0.05 µM.
The like results for `CCN(C)S(=O)(=O)c1ccc(-c2cnc(N)c(-c3ccc4c(c3)CCNC4=O)c2)s1` [5-(6-amino-5-(1-oxo-1,2,3,4-tetrahydroisoquinolin-6-yl)pyridin-3-yl)-N-ethyl-N-methylthiophene-2-sulfonamide] were, in that order, less than 0.05 µM and less than 0.01 µM.
Taken in the same sequence, the figures for `Nc1ncc(-c2ccc3c(c2)CNS3(=O)=O)cc1-c1ccc2c(c1)CCNC2=O` [6-(2-amino-5-(1,1-dioxido-2,3-dihydrobenzo[d]isothiazol-5-yl)pyridin-3-yl)-3,4-dihydroisoquinolin-1(2H)-one] were less than 0.05 µM and less than 0.01 µM.
On to `CN(C)c1nc(-c2cnc(N)c(-c3ccc4c(c3)CCNC4=O)c2)cs1` [6-(2-amino-5-(2-(dimethylamino)thiazol-4-yl)pyridin-3-yl)-3,4-dihydroisoquinolin-1(2H)-one], for which the IC50 under setting [2] is less than 0.05 µM.
With `Nc1ncc(-c2ccc3c(c2)CC(=O)N3)cc1-c1ccc2c(c1)CCNC2=O` [6-(2-amino-5-(2-oxoindolin-5-yl)pyridin-3-yl)-3,4-dihydroisoquinolin-1(2H)-one], the IC50 is less than 0.05 µM under setting [1] and less than 0.05 µM under setting [2].
With `CN(C)C(C)(C)c1ccc(-c2cnc(N)c(-c3ccc4c(c3)CCNC4=O)c2)cc1` [6-(2-amino-5-(4-(2-(dimethylamino)propan-2-yl)phenyl)pyridin-3-yl)-3,4-dihydroisoquinolin-1(2H)-one], the IC50 is less than 0.05 µM under setting [1] and less than 0.01 µM under setting [2].
`CC(C)(c1ccc(-c2cnc(N)c(-c3ccc4c(c3)CCNC4=O)c2)cc1)N1CCOCC1` [6-(2-amino-5-(4-(2-morpholinopropan-2-yl)phenyl)pyridin-3-yl)-3,4-dihydroisoquinolin-1(2H)-one]: the IC50 was less than 0.05 µM under setting [1] and less than 0.01 µM under setting [2].
Taken in the same sequence, the figures for `CN(Cc1ccc(-c2cnc(N)c(-c3ccc4c(c3)CCNC4=O)c2)cc1)C1CC1` [6-(2-amino-5-(4-((cyclopropyl(methyl)amino)methyl)phenyl)pyridin-3-yl)-3,4-dihydroisoquinolin-1(2H)-one] were less than 0.05 µM and less than 0.01 µM.
Taken in the same sequence, the figures for `CCS(=O)(=O)c1ccc(-c2cnc(N)c(-c3ccc4c(c3)CCNC4=O)c2)cc1` [6-(2-amino-5-(4-(ethylsulfonyl)phenyl)pyridin-3-yl)-3,4-dihydroisoquinolin-1(2H)-one] were less than 0.05 µM and less than 0.05 µM.
Taken in the same sequence, the figures for `Nc1ncc(-c2ccc(F)cc2)cc1-c1cc2c(cn1)C(=O)NCC2` [6-(2-amino-5-(4-fluorophenyl)pyridin-3-yl)-3,4-dihydro-2,7-naphthyridin-1(2H)-one] were less than 0.05 µM and less than 0.05 µM.
Turning to `Nc1ncc(-c2ccc(F)cc2)cc1-c1ccc2c(c1)CCNC2=O` [6-(2-amino-5-(4-fluorophenyl)pyridin-3-yl)-3,4-dihydroisoquinolin-1(2H)-one], the IC50 under setting [1] is less than 0.15 µM and the concentration for half-maximal inhibition (IC50) under setting [2] was less than 0.05 µM.
`Cc1ccc(-c2cnc(N)c(-c3ccc4c(c3)CCNC4=O)c2)s1` [6-(2-amino-5-(5-methylthiophen-2-yl)pyridin-3-yl)-3,4-dihydroisoquinolin-1(2H)-one]: the half-maximal inhibitory concentration (IC50) is less than 0.05 µM under setting [1] and less than 0.01 µM under setting [2].
Taken in the same sequence, the figures for `Cn1cc(-c2cnc(N)c(-c3ccc4c(c3)CCNC4=O)n2)cn1` [6-(3-amino-6-(1-methyl-1H-pyrazol-4-yl)pyrazin-2-yl)-3,4-dihydroisoquinolin-1(2H)-one] were less than 0.15 µM and less than 0.05 µM.
On to `CNC1(c2ccc(-c3cnc(N)c(-c4ccc5c(c4)CCNC5=O)n3)cc2)CC1` [6-(3-amino-6-(4-(1-(methylamino)cyclopropyl)phenyl)pyrazin-2-yl)-3,4-dihydroisoquinolin-1(2H)-one], for which the IC50 by setting is: under setting [1], less than 0.01 µM; under setting [2], less than 0.01 µM.
Consider `CC(Oc1ccc(-c2cnc(N)c(-c3ccc4c(c3)CCNC4=O)n2)cc1)C1CC1` (stereo not shown) [6-(3-amino-6-(4-(1-cyclopropylethoxy)phenyl)pyrazin-2-yl)-3,4-dihydroisoquinolin-1(2H)-one], for which the IC50 by setting is: under setting [1], less than 0.05 µM; under setting [2], less than 0.01 µM.
Regarding `Nc1ncc(-c2ccc(C(=O)C(F)(F)F)cc2)nc1-c1ccc2c(c1)CCNC2=O` [6-(3-amino-6-(4-(2,2,2-trifluoroacetyl)phenyl)pyrazin-2-yl)-3,4-dihydroisoquinolin-1(2H)-one], the IC50 by setting is: under setting [1], less than 0.15 µM; under setting [2], less than 0.05 µM.
The like results for `CC(C)(O)c1ccc(-c2cnc(N)c(-c3ccc4c(c3)CCNC4=O)n2)cc1` [6-(3-amino-6-(4-(2-hydroxypropan-2-yl)phenyl)pyrazin-2-yl)-3,4-dihydroisoquinolin-1(2H)-one] were, in that order, less than 0.05 µM and less than 0.01 µM.
On to `Nc1ncc(-c2ccc(C3(O)CCOCC3)cc2)nc1-c1ccc2c(c1)CCNC2=O` [6-(3-amino-6-(4-(4-hydroxytetrahydro-2H-pyran-4-yl)phenyl)pyrazin-2-yl)-3,4-dihydroisoquinolin-1(2H)-one], for which the IC50 reads like this: under setting [1], less than 0.05 µM; under setting [2], less than 0.01 µM.
As to `Nc1ncc(-c2ccc(S(=O)(=O)CC3CC3)cc2)nc1-c1ccc2c(c1)CCNC2=O` [6-(3-amino-6-(4-((cyclopropylmethyl)sulfonyl)phenyl)pyrazin-2-yl)-3,4-dihydroisoquinolin-1(2H)-one], the IC50 by setting is: under setting [1], less than 0.05 µM; under setting [2], less than 0.01 µM.
`Nc1ncc(-c2ccc(S(F)(F)(F)(F)F)cc2)nc1-c1ccc2c(c1)CCNC2=O` [6-(3-amino-6-(4-(pentafluorosulfanyl)phenyl)pyrazin-2-yl)-3,4-dihydroisoquinolin-1(2H)-one]: the IC50 reads like this: under setting [1], less than 0.15 µM; under setting [2], less than 0.05 µM.
Taken in the same sequence, the figures for `Nc1ncc(-c2ccc(S(=O)(=O)N3CCCCC3)cc2)nc1-c1ccc2c(=O)[nH]ccc2c1` [6-(3-amino-6-(4-(piperidin-1-ylsulfonyl)phenyl)pyrazin-2-yl)isoquinolin-1(2H)-one] were less than 0.01 µM and less than 0.01 µM.
`CC(C)(C)c1ccc(-c2cnc(N)c(-c3ccc4c(c3)CCNC4=O)n2)cc1` [6-(3-amino-6-(4-(tert-butyl)phenyl)pyrazin-2-yl)-3,4-dihydroisoquinolin-1(2H)-one]: the IC50 was less than 0.05 µM under setting [1] and less than 0.01 µM under setting [2].
On to `Nc1ncc(-c2ccc(F)cc2)nc1-c1cc2c(cn1)C(=O)NCC2` [6-(3-amino-6-(4-fluorophenyl)pyrazin-2-yl)-3,4-dihydro-2,7-naphthyridin-1(2H)-one], for which the IC50 reads like this: under setting [1], less than 0.01 µM; under setting [2], less than 0.01 µM.
For the compound `CCC(=O)c1ccc(-c2cnc(N)c(-c3ccc4c(c3)CCNC4=O)n2)cc1` [6-(3-amino-6-(4-propionylphenyl)pyrazin-2-yl)-3,4-dihydroisoquinolin-1(2H)-one], the IC50 reads like this: under setting [1], less than 0.05 µM; under setting [2], less than 0.01 µM.
The like results for `Nc1ncc(-c2ccc(S(=O)(=O)N3CCCC34CC4)cc2)cc1-c1ccc2c(c1)CCNC2=O` [6-(5-(4-(4-azaspiro[2.4]heptan-4-ylsulfonyl)phenyl)-2-aminopyridin-3-yl)-3,4-dihydroisoquinolin-1(2H)-one] were, in that order, less than 0.05 µM and less than 0.01 µM.
Consider `COC[C@H]1C[C@@H]1N(C)S(=O)(=O)c1ccc(-c2cnc(N)c(-c3ccc4c(c3)CCNC4=O)n2)nc1` [6-(5-amino-6-(1-oxo-1,2,3,4-tetrahydroisoquinolin-6-yl)pyrazin-2-yl)-N-((1S,2S)-2-(methoxymethyl)cyclopropyl)-N-methylpyridine-3-sulfonamide], for which the IC50 was less than 0.15 µM under setting [1] and less than 0.05 µM under setting [2].
`CN(C1CC1)S(=O)(=O)c1ccc(-c2cnc(N)c(-c3ccc4c(c3)CCNC4=O)n2)nc1` [6-(5-amino-6-(1-oxo-1,2,3,4-tetrahydroisoquinolin-6-yl)pyrazin-2-yl)-N-cyclopropyl-N-methylpyridine-3-sulfonamide]: the IC50 reads like this: under setting [1], less than 0.01 µM; under setting [2], less than 0.01 µM.
Take `[2H]C([2H])([2H])N(C1CC1)S(=O)(=O)c1ccc(-c2cnc(N)c(-c3ccc4c(c3)CCNC4=O)n2)nc1` [6-(5-amino-6-(1-oxo-1,2,3,4-tetrahydroisoquinolin-6-yl)pyrazin-2-yl)-N-cyclopropyl-N-trideuteromethylpyridine-3-sulfonamide]: the IC50 by setting is: under setting [1], less than 0.01 µM; under setting [2], less than 0.01 µM.
As to `CCN(C)S(=O)(=O)c1cnc(-c2cnc(N)c(-c3ccc4c(c3)CCNC4=O)n2)cc1C` [6-(5-amino-6-(1-oxo-1,2,3,4-tetrahydroisoquinolin-6-yl)pyrazin-2-yl)-N-ethyl-N,4-dimethylpyridine-3-sulfonamide], the IC50 under setting [1] was less than 0.01 µM and the IC50 under setting [2] is less than 0.01 µM.
Regarding `CCN(C)S(=O)(=O)c1ccc(-c2cnc(N)c(-c3ccc4c(c3)CCNC4=O)n2)nc1` [6-(5-amino-6-(1-oxo-1,2,3,4-tetrahydroisoquinolin-6-yl)pyrazin-2-yl)-N-ethyl-N-methylpyridine-3-sulfonamide], the IC50 is less than 0.01 µM under setting [1] and less than 0.01 µM under setting [2].
